Active and inactive are the calls of the source. The calls are words filed in the database; no cut-off is given here.

Consider 21 molecules from ChEMBL document CHEMBL4177686, “Depsidone and xanthones from Garcinia xanthochymus with hypoglycemic activity and the mechanism of promoting glucose uptake in L6 myotubes” (Bioorg Med Chem, 2017).

In series [1] the test system is L6. In words: Increase in glucose uptake in rat L6 cells at 25 uM after 4 hrs relative to control. Format: functional.
For series [2], the system named is L6. In words: Cytotoxicity against rat L6 cells assessed as reduction in cell viability at 25 uM after 4 hrs by MTT assay. Format: cell-based. The conditions noted are these: l6, 4 h. (Tetrazolium assays rely on reduction of a dye to a coloured formazan, in cell work by metabolically active cells.)
The subject of series [3] is L6. In words: Increase in glucose uptake in rat L6 cells at 100 uM after 4 hrs. The format is functional, cell-based.
For series [4], the target named is RAC-alpha serine/threonine-protein kinase (Rattus norvegicus) (UniProt P47196). In words: Induction of AKT phosphorylation at Ser 473 residues in rat L6 cells at 12.5 to 25 uM by Western blot analysis. The format is cell-based. (In western blotting, separated proteins are transferred to a membrane and probed.)
Chain of RAC-alpha serine/threonine-protein kinase (Rattus norvegicus) (P47196 whole entry): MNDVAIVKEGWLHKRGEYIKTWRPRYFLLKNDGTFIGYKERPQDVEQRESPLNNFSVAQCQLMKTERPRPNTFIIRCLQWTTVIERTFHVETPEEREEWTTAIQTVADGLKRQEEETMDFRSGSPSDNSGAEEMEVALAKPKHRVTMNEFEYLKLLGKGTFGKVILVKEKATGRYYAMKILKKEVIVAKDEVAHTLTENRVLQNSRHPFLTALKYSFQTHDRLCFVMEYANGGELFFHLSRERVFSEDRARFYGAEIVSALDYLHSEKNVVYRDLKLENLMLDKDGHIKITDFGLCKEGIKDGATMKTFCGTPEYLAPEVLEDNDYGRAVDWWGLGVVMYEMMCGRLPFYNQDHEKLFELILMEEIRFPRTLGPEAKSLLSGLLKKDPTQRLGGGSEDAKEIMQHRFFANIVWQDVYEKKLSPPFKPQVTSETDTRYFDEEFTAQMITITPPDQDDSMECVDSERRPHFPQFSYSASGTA
Series [5] has as its system L6. In words: Increase in glucose uptake in rat L6 cells at 10 to 25 uM after 4 hrs. The format is functional, cell-based.
Series [6] has as its target RAC-alpha serine/threonine-protein kinase (Rattus norvegicus) (UniProt P47196). In words: Activation of AKT in rat L6 cells assessed as GSK3beta phosphorylation at Ser 9 residues at 12.5 to 25 uM by Western blot analysis. Format: cell-based.
Series [7] has as its system L6. In words: Increase in glucose uptake in rat L6 cells at 25 to 100 uM after 4 hrs. The format is functional, cell-based.
Series [8] concerns L6. In words: Activation of AMPK phosphorylation in rat L6 cells assessed as ACC phosphorylation at Ser 79 residues at 12.5 to 25 uM by Western blot analysis. The format is cell-based.
For series [9], the system named is L6. In words: Activation of PI3K/AKT/AMPK in rat L6 cells transfected with mOrange dye-based IRAP assessed as increase in GLUT4 translocation at 25 uM measured every 5 mins for 30 mins post 15 mins PI3K inhibitor wortmanin treatment by confocal microscopic analysis. Format: cell-based.
The test system of series [10] is L6. In words: Activation of PI3K/AKT/AMPK in rat L6 cells transfected with mOrange dye-based IRAP assessed as increase in GLUT4 translocation at 25 uM measured every 5 mins for 30 mins by confocal microscopic analysis relative to basal control. Format: cell-based.
Series [11] deals with L6. In words: Cytotoxicity against rat L6 cells assessed as reduction in cell viability at 1 to 100 uM after 4 hrs by MTT assay. Format: cell-based. To be noted: l6, 4 h.
The test system of series [12] is L6. In words: Induction of AMPK phosphorylation at […] residues in rat L6 cells at 12.5 to 25 uM by Western blot analysis. The format is cell-based.
Series [13] deals with L6. In words: Increase in glucose uptake in rat L6 cells at 25 uM treated for 4 hrs post 15 mins PI3K inhibitor wortmanin treatment. Format: functional, cell-based.
For series [14], the system named is L6. In words: Increase in glucose uptake in rat L6 cells at 25 uM after 2 to 4 hrs. Format: functional, cell-based.
In series [15] the test system is L6. In words: Increase in glucose uptake in rat L6 cells at 25 uM treated for 4 hrs post 30 mins AMPK inhibitor compound C treatment. Format: functional, cell-based.
Series [16] concerns L6. In words: Activation of PI3K/AKT/AMPK in rat L6 cells transfected with mOrange dye-based IRAP assessed as increase in GLUT4 translocation at 25 uM measured every 5 mins for 30 mins post 30 mins AMPK inhibitor compound C treatment by confocal microscopic analysis. The format is cell-based.
Series [17] concerns L6. In words: Increase in glucose uptake in rat L6 cells at <10 uM after 4 hrs. The format is functional, cell-based.
For series [18], the system named is L6. In words: Increase in glucose uptake in rat L6 cells at 2 mM treated for 4 hrs post 30 mins AMPK inhibitor compound C treatment. The format is functional, cell-based.
The test system of series [19] is L6. In words: Increase in glucose uptake in rat L6 cells at 2 mM after 4 hrs relative to control. Format: functional.
In series [20] the test system is L6. In words: Induction of AMPK phosphorylation at […] residues in rat L6 cells at 25 uM by Western blot analysis. The format is cell-based.
The test system of series [21] is L6. In words: Activation of AMPK in rat L6 cells assessed as ACC phosphorylation at Ser 79 residues at 25 uM by Western blot analysis. Format: cell-based.
For series [22], the target named is RAC-alpha serine/threonine-protein kinase (Rattus norvegicus) (UniProt P47196). In words: Induction of AKT phosphorylation at Ser 473 residues in rat L6 cells by Western blot analysis. The format is cell-based.

For `CC(C)=CCc1c(O)c(O)c2oc3c4c(cc(O)c3c(=O)c2c1CC=C(C)C)OC(C)(C)C=C4`, the Activity in the series on L6 [1] is 195.28%; with L6 [2], “Non-Toxic”.
`CC(C)=CCc1cc(O)c(O)c2oc3cc(O)cc(O)c3c(=O)c12`: the result in the series on L6 [1] was inactive. Further, the Activity result in the series on L6 [2] is “Non-Toxic”.
For the molecule `COc1c2c(c(O)c3c(=O)c4c(O)ccc(O)c4oc13)C=CC(C)(C)O2`, the Activity result in the series on L6 [2] was “Non-Toxic”.
For the molecule `C=CC(C)(C)c1cc(O)c(O)c2c(=O)c3cc(CC=C(C)C)c(O)c(O)c3oc12`, the result with L6 [3], in the series with L6 [7], in the series with L6 [9], in the series on L6 [16] and in the series with L6 [17] was inactive. The result (in series [4]; in the series with L6 [5]; in series [6]; in the series with L6 [8]; in the series with L6 [10]; in the series on L6 [12]) was Active. Besides, the outcome in the series with L6 [13], in the series with L6 [14] and in the series with L6 [15] was Active. The Activity is recorded as 166.2% in the series with L6 [1], “Non-Toxic” in the series on L6 [2] and “Non-Toxic” with L6 [11].
For `CC(C)=CCc1c(O)cc(O)c2c(=O)c3cccc(O)c3oc12`, in the series with L6 [2], the Activity entry was “Non-Toxic”.
Still for that read-out and setting: the entry for `CC(C)=CCC/C(C)=C/Cc1c(O)c(O)c2oc3cc(O)cc(O)c3c(=O)c2c1CCC(C)(C)O` is “Non-Toxic”.
For the molecule `CN(C)C(=N)NC(=N)N` [METFORMIN], the outcome with L6 [18] was Active. The Activity with L6 [19] came out at 167.2%.
Consider `CC1(C)C=Cc2c(c(O)c3oc4ccc(O)cc4c(=O)c3c2O)O1`, for which the Activity entry in the series on L6 [2] is listed as “Non-Toxic”.
On to `COc1c(O)ccc2c(=O)c3c(O)ccc(OC)c3oc12`, for which the Activity result in the series on L6 [2] is “Non-Toxic”.
Same read-out and setting: the entry for `COc1c(O)c(CC=C(C)C)cc2c(=O)c3c(O)ccc(O)c3oc12` is “Non-Toxic”; for `CC(C)=CCc1c(O)c(O)c2oc3c(O)ccc(O)c3c(=O)c2c1CC=C(C)C` it is “Non-Toxic”; for `O=c1c2cccc(O)c2oc2ccc(O)c(O)c12` it is “Non-Toxic”.
For `CC(C)=CCC/C(C)=C/Cc1c(O)cc2c(c1O)C(=O)Oc1c(CC=C(C)C)cc(O)c(O)c1O2`, in the series with L6 [2], the Activity result is recorded as “Non-Toxic”.
For the molecule `CC(C)=CCc1c(O)c(O)c2oc3c(CC=C(C)C)c(O)cc(O)c3c(=O)c2c1CCC(C)(C)O`, in the series with L6 [2], the Activity result is on record as “Non-Toxic”.
`COc1c(O)ccc2oc3c(O)cccc3c(=O)c12`: the Activity entry with L6 [2] is reported as “Non-Toxic”.
With `CC(C)=CCC/C(C)=C/Cc1cc2c(=O)c3c(O)cc(O)cc3oc2c(O)c1O`, in the series on L6 [1], the result was inactive. Further, the Activity result in the series on L6 [2] is “Non-Toxic”.
In the case of `CC1(C)C=Cc2c(c(O)c3oc4c(O)ccc(O)c4c(=O)c3c2O)O1`, the outcome in the series on L6 [1] was inactive. In the series on L6 [2], the Activity entry is recorded as “Non-Toxic”.
`C=CC(C)(C)c1cc(O)c2oc3c(O)cccc3c(=O)c2c1O`: the outcome (in series [4]; with L6 [5]; with L6 [20]; in series [6]; in the series with L6 [21]; in the series on L6 [10]) was Active. Moreover, the outcome with L6 [14] and in the series on L6 [15] was Active. The Activity in the series on L6 [1] is 208.4%; with L6 [2], “Non-Toxic”; in the series on L6 [11], “Non-Toxic”; in series [22] it was “Dose-dependent effect”. For the same molecule, the outcome in the series with L6 [7], in the series on L6 [9], in the series on L6 [13], with L6 [16] and with L6 [17] was inactive.
`COc1cc(O)c2c(=O)c3cccc(O)c3oc2c1`: in the series with L6 [2], the Activity entry is recorded as “Non-Toxic”.
The same measure, in the same setting: with `CC(C)=CCc1c(O)c(O)c2oc3c(CC=C(C)C)c(O)cc(O)c3c(=O)c2c1CC=C(C)C` the entry was “Non-Toxic”; with `CC1(C)C=Cc2c(cc3oc4c(O)cccc4c(=O)c3c2O)O1`, “Non-Toxic”.
